Measurements taken from paper PMC9704104, “Towards safer anti-inflammatory therapy: synthesis of new thymol–pyrazole hybrids as dual COX-2/5-LOX inhibitors” (Journal of Enzyme Inhibition and Medicinal Chemistry, 2022).
Where “and” joins values, the source holds several entries; their conditions need not be identical. Equal entries are not always repeated.

System: formalin-induced rat paw oedema
Assay: Formalin-induced paw oedema test (acute inflammation model)
Assay type: in vivo

Q: Which “% Inhibition of oedema volume” value (4 h, individual rats 1-3, 5 mg/kg orally, 5 mg/kg) does the source give for `Cc1ccc(C(C)C)c(O)c1C=NNC(=O)c1cc(-c2ccccc2)n(-c2ccccc2)n1` [Compound 8d, N'-(2-Hydroxy-3-isopropyl-6-methylbenzylidene)-1,5-diphenyl-1H-pyrazole-3-carbo-hydrazide] here?
A: 58.10% and 50.70% and 53.10%

Q: And the “Volume of oedema (ml) 4h” value (4 h after formalin, individual rats 1-3, 5 mg/kg orally, 5 mg/kg)?
A: 5.95 mL and 6.03 mL and 6.02 mL

Q: What about the Abs diff. (4 h minus 0, individual rats 1-3, 5 mg/kg orally, 5 mg/kg) of the same compound?
A: 0.93 and 1.07 and 1.0

Q: And the “% Relative potency (4h) celecoxib, Mean ± SD” value (relative to % inhibition of celecoxib at 4 h, group mean ± SD)?
A: 149.0 ± 17.26%

Q: And the “% Relative potency (4h) celecoxib” value (relative to % inhibition of celecoxib at 4 h, individual rats 1-3)?
A: 165.40% and 131.0% and 150.70%

Q: And the “% Relative potency (4h) diclofenac, Mean ± SD” value (relative to % inhibition of diclofenac at 4 h, group mean ± SD)?
A: 103.7 ± 16.65%

Q: What about the “% Relative potency (4h) diclofenac” value (relative to % inhibition of diclofenac at 4 h, individual rats 1-3) of the same compound?
A: 122.90% and 93.20% and 95.0%

Q: What about the “Volume of oedema (ml) 0” value (time 0, individual rats 1-3, 5 mg/kg orally, 5 mg/kg) of the same compound?
A: 5.02 mL and 4.96 mL
